# Data as given in patent US4117118A, “Organic compounds” (Sandoz Ltd., priority 1976, dated 1978).
# Assays:
# [1] = amorphous form
# From the text: Behaviour in the thin layer chromatogram (substance spots made visible with iodine vapour): […]
# Aspergillus niger = settings: standard tests
smiles,measurement,setting,value
"C/C=C/C[C@@H](C)[C@@H](O)[C@H]1C(=O)N[C@@H](C)C(=O)N(C)CC(=O)N(C)[C@@H](CC(C)C)C(=O)N[C@@H](C(C)C)C(=O)N(C)[C@@H](CC(C)C)C(=O)N[C@@H](C)C(=O)N[C@H](C)C(=O)N(C)[C@@H](CC(C)C)C(=O)N(C)[C@@H](CC(C)C)C(=O)N(C)[C@@H](C(C)C)C(=O)N1C [S 7481/F-2, Cyclosporin B]",Solubility in most of the usual organic solvents,[1],readily soluble
same,Solubility in petroleum ether and water,[1],practically insoluble
same,Inhibition of the growth of Aspergillus niger,Aspergillus niger,inhibition of the growth
